Experiment: Release from post-loaded section of the drug delivery device (Example 5)
Assay type: physicochemical
Experimental: A central section of a self-retaining implantable drug delivery device disclosed herein was loaded with Travoprost by cutting a 3 mm section of the device and then placed into 0.200 mL of hexanes for 3 hours. Following this period, the self-retaining implantable drug delivery device was placed immediately into 0.050 mL of a Travoprost stock solution 25 mg/mL in ethanol and allowed to stand overnight. The following day, this section was washed sequentially by dipping into a water bath, followed by a 10% acetonitrile bath. It was dried at 80 C and set to release the following day. The section was allowed to release over a period of 38 days. The loading was determined to be approximately 13 mcg. […] This release profile is predicted by the Higuchi mechanism. This type of loading procedure we term post loading. The loaded section is coated with a poly(p-xylylene) polymer and two tiny holes are place completely through the section. The section is then molded together with the two flanking sections of the stent to form the final product. The release from this modified stent follows a near zero order release in vitro and in vivo in preclinical animal models and clinical studies.

For CC(C)OC(=O)CCC/C=C\C[C@@H]1[C@@H](/C=C/[C@@H](O)COc2cccc(C(F)(F)F)c2)[C@H](O)C[C@@H]1O [Travoprost], the loading (3 mm device section post loaded from 25 mg/mL Travoprost in ethanol) was “approximately 13 mcg”, the “release at 38 days” value (post-loaded uncoated 3 mm section) was 99% and the release profile (post-loaded uncoated 3 mm section, over 38 days) was “curvilinear/asymptotic profile”.

Source: US20210169690A1, “Self-Retaining Implantable Drug Delivery Device” (GoldenBiotech, LLC, priority 2019, published 2021)
